Measured values published in patent publication US8129527B2, “Analogs of dehydrophenylahistins and their therapeutic use” (Nereus Pharmacuticals, Inc., priority 2006, dated 2012).
Where two headings read alike, the source gives them in different places.

System: HT-29 cells
Experiment: Additional cytotoxicity assays, resazurin (Table 3.1)
Type: cell-based, human
Conditions: for EC50: Homo sapiens
Procedure: 10× concentrated serial dilutions of the two compounds were prepared in appropriate culture medium for final concentrations ranging from 2.0×10^−5 M to 2.0×10^−10 M. Ten μl volumes of the 10× serial dilutions were added to the test wells in triplicate and the plates returned to the incubator for 48 hours.
Following 48 hours of drug exposure 10 μl of 0.2 mg/ml resazurin (obtained from Sigma-Aldrich Chemical Co.) in Mg^2+, Ca^2+ free PBS was added to each well and the plates were returned to the incubator for 3-4 hours. […] Resazurin dye without cells was used to determine the background, which was subtracted from the data for all experimental wells. The data were analyzed using Prism software (GraphPad Software).
Additional cytotoxicity assays were performed as described above under this example, using Resazurin fluorescence as an indicator of cell viability.

[1] = HT-29, Table 3.1, read-out: EC50 (M) Mean

SMILES	EC50 [1] [M]	% cytotox Mean (Table 3.1) [%]	EC50 (HT-29, read-out: EC50 (M) Mean) [M]
CC(C)(C)c1[nH]cnc1/C=c1\[nH]c(=O)/c(=C/c2sccc2B(O)O)[nH]c1=O [Compound 2459, tBu-delta-PLH-3-B(OH)2-2-thienyl]	2.53e-08	88	–
CC(C)(C)c1[nH]cnc1/C=c1\[nH]c(=O)/c(=C/c2ccccc2)[nH]c1=O [Compound 2358, t-butyl-delta-PLH]	–	86	1.49e-08
COc1cccc(/C=c2\[nH]c(=O)/c(=C/c3nc[nH]c3C(C)(C)C)[nH]c2=O)c1O [Compound 2373, tBu-delta-PLH-2-OH-3-OMe (o-vanillin)]	5.36e-06	79	–
COc1cccc(/C=c2\[nH]c(=O)/c(=C/c3nc[nH]c3C(C)(C)C)[nH]c2=O)c1N [Compound 2455, tBu-delta-PLH-2-NH2-3-OMe]	3.49e-07	87	–
Cc1ccc(C)c(/C=c2\[nH]c(=O)/c(=C/c3nc[nH]c3C(C)(C)C)[nH]c2=O)c1 [Compound 2442, tBu-delta-PLH-2,5-diMe]	8.82e-08	87	–
COc1ccc(/C=c2\[nH]c(=O)/c(=C/c3nc[nH]c3C(C)(C)C)[nH]c2=O)cc1O [Compound 2408, tBu-delta-PLH-3-OH-4-OMe]	7.48e-06	66	–
CC(C)(C)c1[nH]cnc1/C=c1\[nH]c(=O)/c(=C/c2cc(Br)ccc2O)[nH]c1=O [Compound 2407, tBu-delta-PLH-2-OH-5-Br]	> 2e-05	13	–
COc1cccc(/C=c2\[nH]c(=O)/c(=C/c3nc[nH]c3C(C)(C)C)[nH]c2=O)c1[N+](=O)[O-] [Compound 2441, tBu-delta-PLH-2-NO2-3-OMe]	6.63e-07	83	–
CC(C)(C)c1[nH]cnc1/C=c1\[nH]c(=O)/c(=C/c2cc(Br)cs2)[nH]c1=O [Compound 2423, tBu-delta-PLH-4-Br-2-thionyl]	1.71e-07	86	–
CC(C)(C)c1[nH]cnc1/C=c1\[nH]c(=O)/c(=C/c2cc([N+](=O)[O-])ccc2Cl)[nH]c1=O [Compound 2371, tBu-delta-PLH-2-Cl-5-NO2]	5.34e-08	86	–
CSc1ccccc1/C=c1\[nH]c(=O)/c(=C/c2nc[nH]c2C(C)(C)C)[nH]c1=O [Compound 2429, tBu-delta-PLH-2-(Methylthio)]	2.86e-08	87	–
COc1cc(/C=c2\[nH]c(=O)/c(=C/c3nc[nH]c3C(C)(C)C)[nH]c2=O)cc(OC)c1OC [Compound 2362, tBu-ΔPLH-3,4,5-triOMe]	–	78	8.19e-06
CC(C)(C)c1[nH]cnc1/C=c1\[nH]c(=O)/c(=C/c2cccc3c2OCO3)[nH]c1=O [Compound 2381, tBu-delta-PLH-2,3-methylendioxy]	5.2e-07	82	–
CC(C)(C)c1[nH]cnc1/C=c1\[nH]c(=O)/c(=C/c2ccc(Br)o2)[nH]c1=O [Compound 2425, tBu-delta-PLH-5-Br-2-furyl]	3.05e-08	87	–
CC(C)(C)c1[nH]cnc1/C=c1\[nH]c(=O)/c(=C/c2ccc(C#N)cc2)[nH]c1=O [Compound 2394, tBu-delta-PLH-p-CN]	> 2e-05	14	–
CC(C)(C)c1[nH]cnc1/C=c1\[nH]c(=O)/c(=C/c2cc(Cl)ccc2O)[nH]c1=O [Compound 2410, tBu-delta-PLH-2-OH-5-Cl]	> 2e-05	37	–
Cn1cccc1/C=c1\[nH]c(=O)/c(=C/c2nc[nH]c2C(C)(C)C)[nH]c1=O [Compound 2414, tBu-delta-PLH-N-Me-2-pyrrole]	1.17e-07	88	–
CC(C)(C)c1[nH]cnc1/C=c1\[nH]c(=O)/c(=C/c2cc(Cl)cc(Cl)c2)[nH]c1=O [Compound 2415, tBu-delta-PLH-3,5-diCl]	9.49e-08	87	–
Cc1cccc(/C=c2\[nH]c(=O)/c(=C/c3nc[nH]c3C(C)(C)C)[nH]c2=O)c1C [Compound 2439, tBu-delta-PLH-2,3-di-Me]	2.96e-09	87	–
COc1ccc(/C=c2\[nH]c(=O)/c(=C/c3nc[nH]c3C(C)(C)C)[nH]c2=O)c(O)c1 [Compound 2409, tBu-delta-PLH-2-OH-4-OMe]	> 2e-05	8	–
CC(C)(C)c1[nH]cnc1/C=c1\[nH]c(=O)/c(=C/c2ccccc2N)[nH]c1=O [Compound 2457, tBu-delta-PLH-2-NH2]	4.32e-07	86	–
COc1ccc(O)c(/C=c2\[nH]c(=O)/c(=C/c3nc[nH]c3C(C)(C)C)[nH]c2=O)c1 [Compound 2405, tBu-delta-PLH-2-OH-5-OMe]	> 2e-05	25	–
COc1ccc(F)c(/C=c2\[nH]c(=O)/c(=C/c3nc[nH]c3C(C)(C)C)[nH]c2=O)c1 [Compound 2431, tBu-delta-PLH-2-F5-OMe]	2.03e-08	88	–

SMILES	EC50 [1] [M]	% cytotox Mean (Table 3.1) [%]	EC50 (HT-29, read-out: EC50 (M) Mean) [M]
C=CC(C)(C)c1[nH]cnc1/C=C1\NC(=O)[C@H](Cc2ccccc2)NC1=O [Compound 2350, (−)-(S)-Halimide, (−)-(S)-Phenylahistin, (−)-(S)-PLH, reference compound]	3.94e-07	87	–
CC(C)(C)c1ccc(O)c(/C=c2\[nH]c(=O)/c(=C/c3ccccc3)[nH]c2=O)c1 [Compound 2422, tBu-delta-PLH-2-Hydroxybenzyl]	> 2e-05	14	–
COc1cc(OC)c(/C=c2\[nH]c(=O)/c(=C/c3nc[nH]c3C(C)(C)C)[nH]c2=O)c(OC)c1 [Compound 2396, tBu-delta-PLH-2,4,6-TriOMe]	> 2e-05	2	–
CC(C)(C)c1[nH]cnc1/C=c1\[nH]c(=O)/c(=C/c2cc(I)ccc2F)[nH]c1=O [Compound 2428, tBu-delta-PLH-2-F-5-I]	4.17e-08	87	–
Cc1ccsc1/C=c1\[nH]c(=O)/c(=C/c2nc[nH]c2C(C)(C)C)[nH]c1=O [Compound 2379, tBu-delta-PLH-3-Me-2-thienyl]	4.7e-08	86	–
COc1cc(/C=c2\[nH]c(=O)/c(=C/c3nc[nH]c3C(C)(C)C)[nH]c2=O)cc(OC)c1 [Compound 2367, tBu-delta-3,5-diOMe]	4.54e-08	87	–
COc1ccc(/C=c2\[nH]c(=O)/c(=C/c3nc[nH]c3C(C)(C)C)[nH]c2=O)c(OC)c1OC [Compound 2368, tBu-delta-PLH-2,3,4-triOMe]	4.8e-06	78	–
Cc1[nH]cnc1/C=c1\[nH]c(=O)/c(=C/c2nc[nH]c2C(C)(C)C)[nH]c1=O [Compound 2387, tBu-delta-PLH-5-Me-4-im]	2.35e-06	84	–
C=CC(C)(C)c1[nH]cnc1/C=c1\[nH]c(=O)/c(=C/c2ccccc2)[nH]c1=O [Compound 2352, Dehydrophenylahistin]	4.26e-08	86	–
CC(C)(C)c1ccc(O)c(/C=c2\[nH]c(=O)/c(=C/c3nc[nH]c3C(C)(C)C)[nH]c2=O)c1 [Compound 2433, tBu-delta-PLH-2-OH-5-tBU]	8.53e-06	80	–
Cc1cccc(/C=c2\[nH]c(=O)/c(=C/c3nc[nH]c3C(C)(C)C)[nH]c2=O)n1 [Compound 2384, tBu-delta-PLH-3-Me-2-pyridyl]	> 2e-05	37	–
CCc1ccc(/C=c2\[nH]c(=O)/c(=C/c3nc[nH]c3C(C)(C)C)[nH]c2=O)o1 [Compound 2426, tBu-delta-PLH-5-Et-2-furyl]	2.42e-07	86	–
COc1cccc2cc3c(=O)[nH]/c(=C\c4nc[nH]c4C(C)(C)C)c(=O)n3c12 [Compound 2374, tBu-delta-PLH-cyclized-3-MeO]	6.92e-06	58	–
CC(C)(C)c1[nH]cnc1/C=c1\[nH]c(=O)/c(=C/c2cccc(N)c2)[nH]c1=O [Compound 2458, tBu-delta-PLH-m-NH2]	–	87	3.1e-08
CC(C)(C)c1[nH]cnc1/C=c1\[nH]c(=O)/c(=C/c2cccc(OC(F)(F)F)c2)[nH]c1=O [Compound 2430, tBu-delta-PLH-m-OCF3]	1.43e-08	87	–
CC(C)(C)c1[nH]cnc1/C=c1\[nH]c(=O)/c(=C/c2ccc(Cl)s2)[nH]c1=O [Compound 2412, tBu-delta-PLH-5-Cl-2-thionyl]	–	85	1.65e-07
Cc1ccc(/C=c2\[nH]c(=O)/c(=C/c3nc[nH]c3C(C)(C)C)[nH]c2=O)s1 [Compound 2378, tBu-delta-PLH-5-Me-2-thienyl]	8.52e-08	85	–
Cc1ccc(F)c(/C=c2\[nH]c(=O)/c(=C/c3nc[nH]c3C(C)(C)C)[nH]c2=O)c1 [Compound 2436, tBu-delta-PLH-2-F-5-Me]	2.5e-08	86	–
COc1cc(/C=c2\[nH]c(=O)/c(=C/c3nc[nH]c3C(C)(C)C)[nH]c2=O)ccc1F [Compound 2432, tBu-delta-PLH-4-F-3-OMe]	4.93e-07	85	–
C=CC(C)(C)c1[nH]cnc1/C=c1\[nH]c(=O)/c(=C\c2ccc(OC)cc2)[nH]c1=O [Compound 2357]	8.25e-06	63	–
CC(C)(C)c1[nH]cnc1/C=c1\[nH]c(=O)/c(=C/c2cc(Cl)ccc2[N+](=O)[O-])[nH]c1=O [Compound 2403, tBu-delta-PLH-2-NO2-5-Cl]	9.97e-08	86	–
C=CC(C)(C)c1[nH]cnc1/C=C1\NC(=O)C(Cc2ccccc2)N=C1OC (racemic) [Compound 2355, D,L-monolactim-PLH]	> 2e-05	13	–
